Reference: patent publication US20220370416A1, “COMPOUNDS AND METHODS FOR TARGETED DEGRADATION OF KRAS” (Arvinas Operations, Inc., priority 2020, published 2022)

How the values were obtained:
[1] = target: T1, HiBit-KRAS^G12C (Homo sapiens, UniProt P01116, G12C); assay: HiBit degradation assay in SW1573 HiBit-KRas^G12C cells; assay type: cell-based; set-up: expressed in transfected cells; host or cells: SW1573 (clone E6), modified pcDNA3.1 vector, TK promoter; conditions: 24 hours; for Dmax: SW1573, SW1573 HiBit-KRas^G12C; for DC50 / KRas^G12C-HiBiT (SW1573; 0.5% DMSO) Dmax**: SW1573 HiBit-KRas^G12C
Summary of the method: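 HiBit-KRAS G12C degradation was measured after a 24 h compound exposure (titrated 10 μM–20 nM) in engineered SW1573 cells. Lytic HiBit luminescence, expressed relative to DMSO controls, yielded DC50 and Dmax from 4-parameter fits. Concentrations causing ≥50% loss in alamar blue viability were omitted as cytotoxic.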

[2] = target: T1, HiBit-KRAS^G12C; assay: HiBit degradation assay in MiaPaCa-2 HiBit-KRas^G12C cells; assay type: cell-based; conditions: 24 hours; for Dmax: MIA PaCa-2, MiaPaCa-2 HiBit-KRas^G12C cells; for DC50: read-out: KRas^G12C-HiBiT (MiaPaCa; 0.5% DMSO) IC50
Experimental: Reagents. SW1573 (CRL-2170) and MiaPaCa-2 (CRL-1420) cells were purchased from ATCC. Both cell lines are […] for the G12C mutation in KRAS. SW1573 cells were cultured in DMEM+F12+Glutamax (+Sodium Bicarbonate, +sodium pyruvate, Thermofisher scientific, #10565) supplemented with 10% FBS (Thermofisher scientific, #2060357) and 1% Antibiotic-Antimycotic (Thermofisher scientific, #15240096). MiaPaCa-2 cells were cultured in DMEM+Glutamax media (Thermofisher scientific, #10566) supplemented with 10% FBS (Thermofisher scientific, #2060357) and 1% Antibiotic-Antimycotic (Thermofisher scientific, #15240096). For degradation assays, 384 well plates were purchased from Corning (Corning® CellBIND® 384-well Flat Clear Bottom Black Polystyrene Microplates, Low Flange, #3770). Gambogic acid was purchased from Selleckchem (#S2448). Alamar blue was purchased from Thermofisher scientific (A50101) and used according to manufacturer instructions. The Nano-Glo® HiBit Lytic Detection System and Nano-Glo® HiBit Blotting System were purchased from Promega (#N3050 and #N2410) and used according to manufacturer instructions.
To create the MiaPaCa-2 HiBit-KRAS^G12C cell line, CRISPR-Cas9 was used to insert the HiBit tag onto the N-terminus of one or more of the four endogenous KRAS^G12C alleles. After knock-in of the tag, individual clones were isolated by single cell dilution and screened for HiBit insertion by PCR. Clones containing the HiBit tag were sequenced and one was identified that contained the desired HiBit-KRAS^G12C sequence at one allele while the remaining three KRAS^G12C alleles were unaffected. This line was used for all subsequent studies.
Either SW1573 HiBit-KRas^G12C or MiaPaCa-2 HiBit-KRas^G12C cells were plated at 9000 cells/well in a 384 well plate (Corning #3770). Exemplary heterobifunctional molecules and positive controls were diluted in the appropriate cell media and applied to the plated cells resulting in a final concentration titration of 10 μM to 20 nM in either 0.1% or 0.5% dimethyl sulfoxide (DMSO). Gambogic acid was used as a positive control for cytotoxicity and titrated from 10 μM to 78 nM. All assays were performed in triplicate. Cells were treated with compounds for 24 hours at 37° C. in an incubator containing 5% CO2. Following treatment, alamar blue was used to determine if any compounds led to a loss in cell viability after 24 hours. The 10× alamar blue reagent was added to a final concentration of 1× as recommended by the manufacturer and cells were returned to the incubator for 4 hours. Plates were then allowed to equilibrate to room temperature and fluorescence was measured using a Perkin-Elmer EnVision. After completion of the fluorescence read, the liquid from each well was removed and the cells were washed with PBS. The Nano-Glo® HiBiT detection reagent was prepared according to the manufacturer's instructions and added to each well after the PBS wash was removed. Following incubation at room temperature for 45 minutes, the luminescence was read using the ultra-sensitive luminescence aperture on the Envision instrument.
Fluorescence values from the alamar blue treatment were normalized to the DMSO only control for each compound titration. We hypothesized that compounds that led to a ≥50% loss in cell viability of the KRAS-independent SW1573 HiBit-KRas^G12C cells were likely generally cytotoxic and loss of HiBit-KRAS^G12C signal from these compounds may be due to lower cell number and not specific KRAS^G12C degradation. These points were therefore excluded from the data analysis for degradation. […]

[3] = 0.5% DMSO, read-out: KRas^G12C-HiBiT (SW1573; 0.5% DMSO) Dmax**
[4] = read-out: KRas^G12C-HiBiT (SW1573; 0.5% DMSO) IC50***, 0.5% DMSO
[5] = 0.5% DMSO, maximum degradation, read-out: KRas^G12C-HiBiT (MiaPaCa; 0.5% DMSO) DMax
[6] = MiaPaCa-2 HiBit-KRas^G12C cells, 0.5% DMSO

T1 sequence (P01116 1-186 isoform P01116-2 G12C limits assumed): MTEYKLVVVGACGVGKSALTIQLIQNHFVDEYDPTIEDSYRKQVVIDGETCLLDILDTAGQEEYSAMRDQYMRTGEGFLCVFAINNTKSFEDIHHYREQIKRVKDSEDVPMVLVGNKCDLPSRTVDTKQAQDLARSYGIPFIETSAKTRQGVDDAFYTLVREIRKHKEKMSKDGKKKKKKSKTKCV

| SMILES | Dmax [1, 3] [%] | DC50 [1, 4] [µM] | Dmax [2, 5] [%] | DC50 [2, 6] [µM] | KRas^G12C-HiBiT (SW1573; 0.5% DMSO) Dmax** ([1]; 0.5% DMSO) | KRas^G12C-HiBiT (MiaPaCa; 0.5% DMSO) DMax ([2]; MiaPaCa-2 HiBit-KRas^G12C cells, 0.5% DMSO, maximum degradation) | Dmax ([1]; 0.1% DMSO, read-out: KRas^G12C-HiBit (SW1573; 0.1% DMSO) Dmax**) [%] | DC50 ([1]; 0.1% DMSO, read-out: KRas^G12C-HIBit (SW1573; 0.1% DMSO) DC50*) [µM] | Dmax ([2]; 0.1% DMSO, maximum degradation, read-out: KRas^G12C-HiBiT (MiaPaCa; 0.1% DMSO) DMax) [%] |
| --- | --- | --- | --- | --- | --- | --- | --- | --- | --- |
| C=CC(=O)N1CCN(c2nc(OCCN3CCC(COc4cc([C@@H](C(=O)N5C[C@H](O)C[C@H]5C(=O)N[C@@H](C)c5ccc(-c6scnc6C)cc5)C(C)C)on4)CC3)nc3c(F)c(-c4cc(O)cc5ccccc45)c(Cl)cc23)C[C@@H]1CC#N [Compound 172, (2S,4R)-1-[(2S)-2-[3-({1-[2-({6-chloro-4-[(3S)-3-(cyanomethyl)-4-(prop-2-enoyl)piperazin-1-yl]-8-fluoro-7-(3-hydroxynaphthalen-1-yl)quinazolin-2-yl}oxy)ethyl]piperidin-4-yl}methoxy)-1,2-oxazol-5-yl]-3-methylbutanoyl]-4-hydroxy-N-[(1S)-1-[4-(4-methyl-1,3-thiazol-5-yl)phenyl]ethyl]pyrrolidine-2-carboxamide] |  | > 1 |  | > 1 |  |  |  |  |  |
| C=CC(=O)N1CCN(c2nc(OCCN3CCC(OCCOc4cc([C@H](C(=O)N5C[C@H](O)C[C@H]5C(=O)N[C@@H](C)c5ccc(-c6scnc6C)cc5)C(C)C)on4)CC3)nc3c(F)c(-c4cc(O)cc5ccccc45)c(Cl)cc23)C[C@@H]1CC#N (single isomer, unassigned) [Compound 21] | > 70 |  | > 70 |  |  |  | > 70 | 0.1 to 1 | > 70 |
| C=C(F)C(=O)N1CCN(c2nc(OCCN3CCC(COc4cc([C@H](C(=O)N5C[C@H](O)C[C@H]5C(=O)N[C@@H](C)c5ccc(-c6scnc6C)cc5)C(C)C)on4)CC3)nc3c(F)c(-c4cc(O)cc5ccccc45)c(Cl)cc23)C[C@@H]1CC#N (atropisomer, axis not shown) [Compound 166, (2S,4R)-1-[(2R)-2-[3-({1-[2-({6-chloro-4-[(3S)-3-(cyanomethyl)-4-(2-fluoroprop-2-enoyl)piperazin-1-yl]-8-fluoro-7-(3-hydroxynaphthalen-1-yl)quinazolin-2-yl}oxy)ethyl]piperidin-4-yl}methoxy)-1,2-oxazol-5-yl]-3-methylbutanoyl]-4-hydroxy-N-[(1S)-1-[4-(4-methyl-1,3-thiazol-5-yl)phenyl]ethyl]pyrrolidine-2-carboxamide] |  | 0.1 to 1 |  | > 1 | B (35 < B < 70) |  |  |  |  |

The next lines start with results.

| Dmax [1, 3] [%] | DC50 [1, 4] [µM] | Dmax [2, 5] [%] | DC50 [2, 6] [µM] | KRas^G12C-HiBiT (SW1573; 0.5% DMSO) Dmax** ([1]; 0.5% DMSO) | KRas^G12C-HiBiT (MiaPaCa; 0.5% DMSO) DMax ([2]; MiaPaCa-2 HiBit-KRas^G12C cells, 0.5% DMSO, maximum degradation) | SMILES | Dmax ([1]; 0.1% DMSO, read-out: KRas^G12C-HiBit (SW1573; 0.1% DMSO) Dmax**) [%] | DC50 ([1]; 0.1% DMSO, read-out: KRas^G12C-HIBit (SW1573; 0.1% DMSO) DC50*) [µM] | Dmax ([2]; 0.1% DMSO, maximum degradation, read-out: KRas^G12C-HiBiT (MiaPaCa; 0.1% DMSO) DMax) [%] |
| --- | --- | --- | --- | --- | --- | --- | --- | --- | --- |
| > 70 | 0.1 to 1 | 35 to 70 | 0.1 to 1 |  |  | C=CC(=O)N1CCN(c2nc(OCCN3CCC(COCC(=O)N[C@H](C(=O)N4C[C@H](O)C[C@H]4C(=O)N[C@@H](C)c4ccc(-c5scnc5C)cc4)C(C)(C)C)CC3)nc3c(F)c(-c4c(C)ccc5[nH]ncc45)c(Cl)cc23)C[C@@H]1CC#N [Compound 128, (2S,4R)-1-[(2S)-2-[2-({1-[2-({6-chloro-4-[(3S)-3-(cyanomethyl)-4-(prop-2-enoyl)piperazin-1-yl]-8-fluoro-7-(5-methyl-1H-indazol-4-yl)quinazolin-2-yl}oxy)ethyl]piperidin-4-yl}methoxy)acetamido]-3,3-dimethylbutanoyl]-4-hydroxy-N-[(1S)-1-[4-(4-methyl-1,3-thiazol-5-yl)phenyl]ethyl]pyrrolidine-2-carboxamide] |  |  |  |
|  | 0.1 to 1 |  | 0.1 to 1 | A (A ≥ 70) | A (A ≥ 70) | C=C(F)C(=O)N1CCN(c2nc(OCCN3CCC(COc4cc([C@H](C(=O)N5C[C@H](O)C[C@H]5C(=O)N[C@@H](C)c5ccc(-c6scnc6C)cc5)C(C)C)on4)CC3)nc3c(F)c(-c4cc(O)cc5ccccc45)c(Cl)cc23)C[C@@H]1CC#N [Compound 168, (2S,4R)-1-[(2R)-2-[3-({1-[2-({6-chloro-4-[(3S)-3-(cyanomethyl)-4-(2-fluoroprop-2-enoyl)piperazin-1-yl]-8-fluoro-7-(3-hydroxynaphthalen-1-yl)quinazolin-2-yl}oxy)ethyl]piperidin-4-yl}methoxy)-1,2-oxazol-5-yl]-3-methylbutanoyl]-4-hydroxy-N-[(1S)-1-[4-(4-methyl-1,3-thiazol-5-yl)phenyl]ethyl]pyrrolidine-2-carboxamide] |  |  |  |
| > 70 | 0.1 to 1 | > 70 | 0.1 to 1 |  |  | C=CC(=O)N1CCN(c2nc(O[C@H](C)CN3CCC(COc4cc([C@H](C(=O)N5C[C@H](O)C[C@H]5C(=O)N[C@@H](C)c5ccc(-c6scnc6C)cc5)C(C)C)on4)CC3)nc3c(F)c(-c4cc(O)cc5ccccc45)c(Cl)cc23)C[C@@H]1CC#N [Compound 153, (2S,4R)-1-[(2R)-2-[3-({1-[(2R)-2-({6-chloro-4-[(3S)-3-(cyanomethyl)-4-(prop-2-enoyl)piperazin-1-yl]-8-fluoro-7-(3-hydroxynaphthalen-1-yl)quinazolin-2-yl}oxy)propyl]piperidin-4-yl}methoxy)-1,2-oxazol-5-yl]-3-methylbutanoyl]-4-hydroxy-N-[(1S)-1-[4-(4-methyl-1,3-thiazol-5-yl)phenyl]ethyl]pyrrolidine-2-carboxamide] |  |  |  |
| > 70 | < 0.1 | > 70 | < 0.1 |  |  | C=C(F)C(=O)N1CCN(c2nc(OCCN3CCC(C)(COc4cc([C@H](C(=O)N5C[C@H](O)C[C@H]5C(=O)N[C@@H](C)c5ccc(-c6scnc6C)cc5)C(C)C)on4)CC3)nc3c(F)c(-c4cc(O)cc5ccccc45)c(Cl)cc23)C[C@@H]1CC#N (atropisomer, axis not shown) [Compound 123, (2S,4R)-1-[(2R)-2-[3-({1-[2-({6-chloro-4-[(3S)-3-(cyanomethyl)-4-(2-fluoroprop-2-enoyl)piperazin-1-yl]-8-fluoro-7-(3-hydroxynaphthalen-1-yl)quinazolin-2-yl}oxy)ethyl]-4-methylpiperidin-4-yl}methoxy)-1,2-oxazol-5-yl]-3-methylbutanoyl]-4-hydroxy-N-[(1S)-1-[4-(4-methyl-1,3-thiazol-5-yl)phenyl]ethyl]pyrrolidine-2-carboxamide] |  |  |  |
